Experimental data reported in ChEMBL document CHEMBL4619728, “A chemically stable peptide agonist to neuromedin U receptor type 2” (Bioorg Med Chem, 2020).
pEC50: −log10 of the molar value. One block for each molecule: values may come before it. Activity calls are given as the source filed them. No cut-off for these calls is given here. Square brackets hold non-standard residues; d marks the D form. Side chains are listed from the residue outwards. Peptide text beside a SMILES is read from it. * marks the point of attachment. Propanoyl(3-cHex) = O=C(CCC1CCCCC1)*; 2Pal = N[C@@H](Cc1ccccn1)C(=O)O; 3Pal = N[C@@H](Cc1cccnc1)C(=O)O; 4Pal = N[C@@H](Cc1ccncc1)C(=O)O; hSer = N[C@@H](CCO)C(=O)O; Api = NC1(C(=O)O)CCNCC1; Dab = NCC[C@H](N)C(=O)O; Dap = NC[C@H](N)C(=O)O

How the values were obtained:
[1] = molecular target: T1, Neuromedin-U receptor 2 (Homo sapiens, UniProt Q9GZQ4); assay: Agonist activity at human NMUR2 expressed in CHO cells at 10 nM by Fluo-4-AM dye based calcium mobilization assay; assay type: functional, cell-based
T1 sequence (Q9GZQ4 whole entry): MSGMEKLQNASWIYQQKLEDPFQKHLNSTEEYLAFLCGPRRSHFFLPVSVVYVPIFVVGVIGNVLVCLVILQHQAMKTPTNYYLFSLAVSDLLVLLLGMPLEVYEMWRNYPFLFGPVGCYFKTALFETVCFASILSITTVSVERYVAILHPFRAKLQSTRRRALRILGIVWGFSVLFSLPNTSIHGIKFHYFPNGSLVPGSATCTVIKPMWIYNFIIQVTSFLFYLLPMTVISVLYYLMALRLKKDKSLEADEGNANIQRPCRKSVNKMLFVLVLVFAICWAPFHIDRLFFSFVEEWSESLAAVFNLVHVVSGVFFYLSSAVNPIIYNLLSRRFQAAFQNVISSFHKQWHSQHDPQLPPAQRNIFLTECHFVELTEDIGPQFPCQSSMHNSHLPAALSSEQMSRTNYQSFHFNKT

[2] = molecular target: T2, Neuromedin-U receptor 1 (Homo sapiens) (UniProt Q9HB89); assay: Agonist activity at human NMUR1 expressed in CHO cells at 10 nM by Fluo-4-AM dye based calcium mobilization assay; assay type: functional, cell-based
T2 sequence (whole entry): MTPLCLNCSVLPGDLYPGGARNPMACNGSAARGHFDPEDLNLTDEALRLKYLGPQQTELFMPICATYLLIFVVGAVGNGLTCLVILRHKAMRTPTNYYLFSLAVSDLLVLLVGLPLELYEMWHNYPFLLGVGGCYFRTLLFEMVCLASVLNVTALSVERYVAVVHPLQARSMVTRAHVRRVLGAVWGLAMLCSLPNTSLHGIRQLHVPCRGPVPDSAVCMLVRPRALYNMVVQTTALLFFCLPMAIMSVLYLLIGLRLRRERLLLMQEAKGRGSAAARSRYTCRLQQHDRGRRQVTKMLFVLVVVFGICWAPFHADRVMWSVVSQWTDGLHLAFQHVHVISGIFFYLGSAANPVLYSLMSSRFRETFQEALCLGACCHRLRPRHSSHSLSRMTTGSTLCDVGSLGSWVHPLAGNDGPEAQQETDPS

[3] = molecular target: T2, Neuromedin-U receptor 1 (Homo sapiens); assay: Agonist activity at human NMUR1 expressed in CHO cells at 100 nM by Fluo-4-AM dye based calcium mobilization assay; assay type: functional, cell-based
[4] = molecular target: T1, Neuromedin-U receptor 2; assay: Agonist activity at human NMUR2 expressed in CHO cells at 100 nM by Fluo-4-AM dye based calcium mobilization assay; assay type: functional, cell-based
[5] = molecular target: T1, Neuromedin-U receptor 2; assay: Agonist activity at human NMUR2 expressed in CHO cells at 1 nM by Fluo-4-AM dye based calcium mobilization assay; assay type: functional, cell-based
[6] = molecular target: T2, Neuromedin-U receptor 1 (Homo sapiens); assay: Agonist activity at human NMUR1 expressed in CHO cells at 1 nM by Fluo-4-AM dye based calcium mobilization assay; assay type: functional, cell-based
[7] = molecular target: Neuromedin-U receptor 2 (Mus musculus) (UniProt Q8BZ39); assay: Agonist activity at mouse NMUR2 expressed in human HEK293 cells at 10 nM Fluo-4-AM dye based calcium mobilization assay relative to control; assay type: functional, cell-based
Chain of Neuromedin-U receptor 2 (Mus musculus) (Q8BZ39 whole entry): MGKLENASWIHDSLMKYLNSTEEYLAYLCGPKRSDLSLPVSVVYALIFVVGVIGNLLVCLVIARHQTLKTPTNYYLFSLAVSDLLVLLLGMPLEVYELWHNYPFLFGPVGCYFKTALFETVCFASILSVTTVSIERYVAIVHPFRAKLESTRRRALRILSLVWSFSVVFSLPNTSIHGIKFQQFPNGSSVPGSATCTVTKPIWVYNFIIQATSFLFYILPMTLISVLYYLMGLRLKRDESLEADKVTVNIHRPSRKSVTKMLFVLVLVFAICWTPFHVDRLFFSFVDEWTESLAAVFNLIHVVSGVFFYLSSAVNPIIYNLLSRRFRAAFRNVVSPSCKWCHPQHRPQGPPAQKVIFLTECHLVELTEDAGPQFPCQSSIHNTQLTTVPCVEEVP

[8] = Toxicity in ddY mouse assessed as reduction in body weight gain at 25 to 250 ug intranasal administration; details: in vivo, inhaled_or_intranasal
[9] = molecular target: T1, Neuromedin-U receptor 2; assay: Agonist activity at human NMUR2 expressed in CHO cells by Fluo-4-AM dye based calcium mobilization assay; assay type: functional, cell-based
[10] = Chemical stability of compound in pH 7.4 phosphate buffer at 50 uM assessed as compound recovery after 72 hrs by spectrometric analysis; assay type: physicochemical; details: read-out: Drug recovery
[11] = Chemical stability of compound in pH 5.5 citrate buffer at 50 uM assessed as compound recovery after 72 hrs by spectrometric analysis; assay type: physicochemical; details: read-out: Drug recovery
[12] = Toxicity in ddY mouse assessed as reduction in body weight gain at 20 ug ,ip; details: in vivo
[13] = molecular target: Neuromedin-U receptor 2 (Mus musculus) (UniProt Q8BZ39); assay: Agonist activity at mouse NMUR2 expressed in human HEK293 cells Fluo-4-AM dye based calcium mobilization assay; assay type: functional, cell-based
[14] = Chemical stability of compound in pH 5.5 citrate-posphate buffer at 50 uM assessed as compound recovery after 72 hrs by spectrometric analysis; assay type: physicochemical; details: citrate-phosphate buffer, read-out: Drug recovery
[15] = Chemical stability of compound in MES buffer pH 5.5 at 100 mM assessed as compound recovery after 72 hrs by spectrometric analysis; assay type: physicochemical; details: read-out: Drug recovery
[16] = Chemical stability of compound in pH 7.4 HEPES buffer at 50 uM assessed as compound recovery after 72 hrs by spectrometric analysis; assay type: physicochemical; details: read-out: Drug recovery
[17] = Chemical stability of compound in pH 5.5 acetate buffer at 50 uM assessed as compound recovery after 72 hrs by spectrometric analysis; assay type: physicochemical; details: read-out: Drug recovery

SMILES: CC(C)C[C@H](NC(=O)CCC1CCCCC1)C(=O)N[C@@H](CC(C)C)C(=O)NCC[C@H](N)C(=O)N1CCC[C@H]1C(=O)N[C@@H](CCCNC(=N)N)C(=O)N[C@@H](CC(N)=O)C(N)=O (H-[Dab]([Leu-Leu-Propanoyl(3-cHex)])PRN-NH2)
Activity [3]: 6%
Activity [4]: 6%

SMILES: CC(C)C[C@H](NC(=O)CCC1CCCCC1)C(=O)N[C@@H](CC(C)C)C(=O)N[C@@H](CC(=O)O)C(=O)N1CCC[C@H]1C(=O)N[C@@H](CCCNC(=N)N)C(=O)N[C@@H](CC(N)=O)C(N)=O ({Propanoyl(3-cHex)}-LLDPRN-NH2)
Activity [5]: inactive
Activity [3]: inactive
Activity [6]: inactive
Activity [4]: inactive

SMILES: CC(C)C[C@H](NC(=O)CCC1CCCCC1)C(=O)N[C@@H](CC(C)C)C(=O)N[C@@H](CC(N)=O)C(=O)N1CCC[C@H]1C(=O)N[C@@H](CCCNC(=N)N)C(=O)N[C@@H](CC(N)=O)C(N)=O ({Propanoyl(3-cHex)}-LLNPRN-NH2)
Activity [5]: inactive
Activity [6]: inactive

SMILES: COC[C@H](NC(=O)[C@H](CC(C)C)NC(=O)[C@H](CC(C)C)NC(=O)CCC1CCCCC1)C(=O)N1CCC[C@H]1C(=O)N[C@@H](CCCNC(=N)N)C(=O)N[C@@H](CC(N)=O)C(N)=O ({Propanoyl(3-cHex)}-LLS(Me)PRN-NH2)
Activity [1]: inactive
Activity [2]: inactive

SMILES: CC(C)C[C@H](NC(=O)CCC1CCCCC1)C(=O)N[C@@H](CC(C)C)C(=O)N[C@@H](Cc1ccccn1)C(=O)N1CCC[C@H]1C(=O)N[C@@H](CCCNC(=N)N)C(=O)N[C@@H](CC(N)=O)C(N)=O ({Propanoyl(3-cHex)}-LL[2Pal]PRN-NH2)
Activity [7]: 20 to 40%

SMILES: CC(C)C[C@H](NC(=O)CCC1CCCCC1)C(=O)N[C@@H](CC(C)C)C(=O)N[C@@H](Cc1cccnc1)C(=O)N1CCC[C@H]1C(=O)N[C@@H](CCCNC(=N)N)C(=O)N[C@@H](CC(N)=O)C(N)=O ({Propanoyl(3-cHex)}-LL[3Pal]PRN-NH2)
Activity [7]: 20 to 40%

SMILES: CC(C)C[C@H](NC(=O)CCC1CCCCC1)C(=O)N[C@@H](CC(C)C)C(=O)N[C@@H](Cc1ccncc1)C(=O)N1CCC[C@H]1C(=O)N[C@@H](CCCNC(=N)N)C(=O)N[C@@H](CC(N)=O)C(N)=O ({Propanoyl(3-cHex)}-LL[4Pal]PRN-NH2)
Activity [7]: 20 to 40%

SMILES: CC(C)C[C@H](NC(=O)CCC1CCCCC1)C(=O)N[C@@H](CC(C)C)C(=O)NC1(C(=O)N2CCC[C@H]2C(=O)N[C@@H](CCCNC(=N)N)C(=O)N[C@@H](CC(N)=O)C(N)=O)CCNCC1 ({Propanoyl(3-cHex)}-LL[Api]PRN-NH2)
Activity [7]: inactive

SMILES: CC(C)C[C@H](NC(=O)CCC1CCCCC1)C(=O)N[C@@H](CC(C)C)C(=O)N[C@@H](CCN)C(=O)N1CCC[C@H]1C(=O)N[C@@H](CCCNC(=N)N)C(=O)N[C@@H](CC(N)=O)C(N)=O ({Propanoyl(3-cHex)}-LL[Dab]PRN-NH2)
Activity [8]: Toxic
Activity [9]: Dose-dependent effect
pEC50 [9]: 8.66
Activity [7]: 100%
remaining at 72 h, 50 µM [10]: 95%
remaining at 72 h, 50 µM [11]: 98%
Activity [12]: Toxic
Activity [13]: Active

SMILES: CC(C)C[C@H](NC(=O)CCC1CCCCC1)C(=O)N[C@@H](CC(C)C)C(=O)N[C@@H](CCO)C(=O)N1CCC[C@H]1C(=O)N[C@@H](CCCNC(=N)N)C(=O)N[C@@H](CC(N)=O)C(N)=O ({Propanoyl(3-cHex)}-LL[hSer]PRN-NH2)
Activity [1]: inactive
Activity [2]: inactive

Next, values leading:

Activity [1]: inactive
Activity [2]: inactive
SMILES: CC(C)C[C@H](NC(=O)CCC1CCCCC1)C(=O)N[C@@H](CC(C)C)C(=O)N[C@H](C(=O)N1CCC[C@H]1C(=O)N[C@@H](CCCNC(=N)N)C(=O)N[C@@H](CC(N)=O)C(N)=O)[C@@H](C)O

Activity [1]: inactive
Activity [2]: inactive
SMILES: CC(C)C[C@H](NC(=O)CCC1CCCCC1)C(=O)N[C@@H](CC(C)C)C(=O)N[C@H](C(=O)N1CCC[C@H]1C(=O)N[C@@H](CCCNC(=N)N)C(=O)N[C@@H](CC(N)=O)C(N)=O)[C@H](C)O

Activity [1]: inactive
Activity [2]: inactive
SMILES: CC(C)C[C@H](NC(=O)CCC1CCCCC1)C(=O)N[C@@H](CC(C)C)C(=O)N[C@@H](CS)C(=O)N1CCC[C@H]1C(=O)N[C@@H](CCCNC(=N)N)C(=O)N[C@@H](CC(N)=O)C(N)=O ({Propanoyl(3-cHex)}-LLCPRN-NH2)

Activity [5]: inactive
Activity [3]: Active
Activity [6]: inactive
Activity [4]: Active
SMILES: CC(C)C[C@H](NC(=O)CCC1CCCCC1)C(=O)N[C@@H](CC(C)C)C(=O)N[C@@H](CO)C(=O)N1CCC[C@H]1C(=O)N[C@@H](CCCNC(=N)N)C(=O)N[C@@H](CC(N)=O)C(N)=O ({Propanoyl(3-cHex)}-LLSPRN-NH2)

remaining at 72 h, 50 µM [14]: 64%
remaining at 72 h [15]: 93%
remaining at 72 h, 50 µM [10]: 87%
remaining at 72 h, 50 µM [11]: 81%
remaining at 72 h, 50 µM [16]: 92%
remaining at 72 h, 50 µM [17]: 89%
SMILES: CC(C)C[C@H](NC(=O)CCC1CCCCC1)C(=O)N[C@@H](CC(C)C)C(=O)N[C@@H](CN)C(=O)N1CCC[C@H]1C(=O)N[C@@H](CCCNC(=N)N)C(=O)N[C@@H](CC(N)=O)C(N)=O ({Propanoyl(3-cHex)}-LL[Dap]PRN-NH2)
